These results are taken from PMC6270836, “Carapanolides J–L from the Seeds of Carapa guianensis (Andiroba) and Their Effects on LPS-Activated NO Production” (Molecules, 2014).

A short description of data set [1]: RAW264.7 cell proliferation / cytotoxicity by MTT assay. The conditions noted are these: mouse. On the procedure:
(§1) Physiological nitric oxide (NO) is involved in blood pressure regulation and blood flow distribution, whereas its overexpression may induce tissue injury, multiple organ dysfunction, and death, as well as systemic inflammatory responses in sepsis, such as hypotension, cardiodepression, and vascular hyporeactivity. In the present study, four limonoids and L-NMMA, an inducible nitric oxide synthase (iNOS) inhibitor, were evaluated for their inhibitory effects on NO production in LPS-stimulated RAW264.7 cells (Table 3). To determine safe concentrations, the cytotoxicities of these limonoids against RAW 264.7 were assessed by the MTT assay.
(§2) RAW264.7 cell proliferation was examined according to a method reported previously with some modifications. Briefly, RAW264.7 cells (5 × 10^4 cells in 100 μL) were seeded onto 96-well microplates, and incubated for 24 h. D-MEM (100 μL) containing test samples (final concentration of 100, 30, 10, or 3 μM) dissolved in DMSO (final concentration 0.2%) was added. […] After 3 h of incubation, 20% sodium dodecyl sulfate (SDS) in 0.1 M HCl was added to dissolve the formazan produced by the cells. The absorbance of each well was read at 570 nm using a microplate reader. The optical density of vehicle control cells was assumed to be 100%.
For orientation: Tetrazolium assays rely on reduction of a dye to a coloured formazan, in cell work by metabolically active cells.

Data set [2] concerns RAW264.7 cells. Described as above. The conditions noted are these: 3–100 μM, MTT assay. On the procedure:
as §1, §2

The test system of data set [3] is NO production in LPS-stimulated RAW264.7 cells. In words: Inhibitory assay of NO production in LPS-stimulated RAW264.7 cells. The format is cell-based, mouse. The conditions noted are these: for Produced NO (%): LPS 5 μg/mL, DMSO control = 100%, mean ± S.E., n=3; for IC50: Mus musculus, read-out: IC50 (μM), produced NO. On the procedure:
as §1
An inhibitory assay of nitric oxide production was performed according to a method reported previously with slight modifications. Briefly, RAW264.7 cells (5 × 10^4 cells in 100 μL) were seeded onto 96-well microplates, and incubated for 24h. D-MEM (100 μL) containing test samples (final concentration of 100, 30, 10, or 3 μM) dissolved in DMSO (final concentration 0.2%) and LPS (final concentration of 5 μg/mL) were added. […] After being incubated for 30 min, the absorbance of each well was read at 570 nm using a microplate reader. The optical density of vehicle control cells was assumed to be 100%.

Where [4] appears, read: LPS-stimulated RAW264.7 cells, 24 h.

Where “and” joins values, the source holds several entries; their conditions need not be identical. Equal entries are not always repeated. Entries after “also recorded” stand apart in the source; their conditions may differ. Where two headings read alike, the source gives them in different places.

Take `CC1(C)C(=O)C=CC2(C)C1CC(=O)C1(C)C2C(O)CC2(C)C(c3ccoc3)OC(=O)C3OC321` (stereo not drawn) [Compound 1, 11α-hydroxy-7-deacetoxy-7-oxogedunin]: in data set [1] (RAW264.7 cells), the IC50 (commonly the concentration needed to halve the response being measured) at 24 h is over 100 µM; the viability (commonly a read-out of living cells in per cent, often relative to untreated cells) at 24 h, 3 µM was determined as 102.4 ± 0.8%; the viability at 24 h, 10 µM came out at 101 ± 1.7%; the viability at 24 h, 30 µM worked out at 102.8 ± 0.6%. Also, in data set [1] (RAW264.7 cells), the viability at 24 h, 100 µM came to 103 ± 1.8%. For the same compound, the “Cytotoxicity against RAW 264.7 (in words)” value (“Cytotoxicity” below) in data set [2] is “non-toxicities; also recorded: no cytotoxicity”. Also, the “Produced NO (%)” value in data set [3] (3 μM, 24 h) is reported as 92.1 ± 1.5%. Moreover, the “Produced NO (%)” value in data set [3] (10 μM, 24 h) is 83.4% and 83.4 ± 3.1%. Besides, the “Produced NO (%)” value in data set [3] (30 μM, 24 h) is 61.8% and 61.8 ± 1.8%. Besides, the “Produced NO (%)” value in data set [3] (100 μM, 24 h) is 16.8% and 16.8 ± 0.0%. The IC50 in data set [3] (setting [4]) turned out to be 37.4 µM.
Consider `C/C=C(\C)C(=O)OC1C2(C)CC3(O)C(C)(C4CCC5(C)C(=C4C(OC(=O)C(C)CC)C13O)C(OC(C)=O)C(=O)OC5c1ccoc1)C2CC(=O)OC` (centres unmarked) [Compound 2, carapanolide K], for which, in data set [1] (RAW264.7 cells), it took 15.2 µM to reach half-maximal inhibition (IC50 at 24 h); the viability at 24 h, 3 µM was 81.4 ± 0.8%; the viability at 24 h, 10 µM stood at 65.6 ± 0.2%; the viability at 24 h, 30 µM stood at 33.6 ± 6.3%. In data set [1] (RAW264.7 cells), the viability at 24 h, 100 µM came out at 0.4 ± 0.4%. In addition, the “Produced NO (%)” value in data set [3] (3 μM, 24 h) was determined as 78.6 ± 1.9%. In addition, the “Produced NO (%)” value in data set [3] (10 μM, 24 h) was found to be 58.3 ± 2.8%. Also, in data set [3] (30 μM, 24 h), the “Produced NO (%)” value is 25.8 ± 7.0%. In data set [3] (100 μM, 24 h), the “Produced NO (%)” value stood at 7.1 ± 1.2%. Also, the IC50 in data set [3] (setting [4]) is 12 µM.
Regarding `CCC(=O)OC1C2(O)C(OC(C)=O)C3(C)CC24OC2(C)OC15C1CC(=O)OC(c6ccoc6)C1(C)CCC5(O2)C41COC(=O)CC31` (centres unmarked) [Compound 3, carapanolide L], in data set [1] (RAW264.7 cells), the IC50 at 24 h is over 100 µM; the viability at 24 h, 3 µM stood at 97.6 ± 0.6%; the viability at 24 h, 10 µM was 97.3 ± 1.3%; the viability at 24 h, 30 µM stood at 100.5 ± 0.4%. Also, the viability at 24 h, 100 µM in data set [1] (RAW264.7 cells) was determined as 94.4 ± 1%. Besides, in data set [2], the “Cytotoxicity” value is given as “non-toxicities”. In addition, in data set [3] (3 μM, 24 h), the “Produced NO (%)” value came to 95.6 ± 2.5%. In addition, the “Produced NO (%)” value in data set [3] (10 μM, 24 h) is reported as 95.4 ± 1.2%. Moreover, in data set [3] (30 μM, 24 h), the “Produced NO (%)” value was 95.4 ± 2.9%. The “Produced NO (%)” value in data set [3] (100 μM, 24 h) is on record as 78.4 ± 2.3%. The IC50 in data set [3] (RAW264.7, 24 h) was over 100 µM.
Consider `CC(=O)O[C@@H]1C[C@H]2C(C)(C)C(=O)C=C[C@]2(C)[C@H]2CC[C@@]3(C)[C@H](c4ccoc4)C(=O)[C@H]4O[C@]43[C@@]21C` [Compound 4, epoxyazadiradione], for which, in data set [1], half-maximal inhibition (IC50 at 24 h) required 21.3 µM; the viability at 24 h, 3 µM was found to be 93.6 ± 1.4%; the viability at 24 h, 10 µM came out at 99.7 ± 0.8%; the viability at 24 h, 30 µM turned out to be 6.8 ± 0.3%. Besides, the viability at 24 h, 100 µM in data set [1] was determined as 3.3 ± 0.3%. Also, the “Cytotoxicity” value in data set [2] is recorded as “moderate cytotoxicities”. For the same compound, in data set [3] (3 μM, 24 h), the “Produced NO (%)” value was 74.0% and 74.0 ± 5.0%. The “Produced NO (%)” value in data set [3] (10 μM, 24 h) is 30.0% and 30.0 ± 2.3%. In addition, the “Produced NO (%)” value in data set [3] (30 μM, 24 h) came to 7.5 ± 1.0%. The “Produced NO (%)” value in data set [3] (100 μM, 24 h) came to 3.9 ± 1.8%. Further, the IC50 in data set [3] (setting [4]) amounted to 5.9 µM.
In the case of `[H]/N=C(/NC)NCCC[C@H](N)C(=O)O` [L-NMMA, reference compound], in data set [1] (RAW264.7 cells), the IC50 at 24 h is over 100 µM; the viability at 24 h, 3 µM is 103.5 ± 0.5%; the viability at 24 h, 10 µM came to 102 ± 1.5%; the viability at 24 h, 30 µM was 94.1 ± 1.4%. In addition, the viability at 24 h, 100 µM in data set [1] (RAW264.7 cells) came out at 96.5 ± 2.5%. Also, the “Produced NO (%)” value in data set [3] (3 μM, 24 h) is given as 93.0 ± 3.3%. Moreover, the “Produced NO (%)” value in data set [3] (10 μM, 24 h) was 79.3% and 79.3 ± 0.8%. Further, in data set [3] (30 μM, 24 h), the “Produced NO (%)” value is 58.2% and 58.2 ± 2.4%. The “Produced NO (%)” value in data set [3] (100 μM, 24 h) is 39.9% and 39.9 ± 1.7%. Moreover, in data set [3] (setting [4]), the concentration for half-maximal inhibition (IC50) is 53.7 µM.
